Measured values taken from paper PMC8750527 (Cancers, 2021).

Key:
DAOY = test: MTT assay, 48 h exposure, DAOY MB cells; format: cell-based, human; conditions: Homo sapiens, Daoy; Table 1; MTT, 48 h exposure; mean ± SEM
Method: HDF (3000 cells), C8-D1A (5000 cells), D458 (5000 cells), DAOY (2000 cells), HD-MB03 (10,000 cells) and CHLA-01-Med (10,000 cells) were seeded at an approximate confluency of 50% in 96-well plates (Corning Inc., Corning, NY, USA) in 100 µL medium per well. A range from 50 nM to 150 µM of every drug was tested. The effects of the antiangiogenic compounds were measured using a 3-[4,5-dimethylthiazol-2yl]-diphenyltetrazolium bromide (MTT) colorimetric assay (Sigma, Lyon, France) according to the manufacturer’s instructions. When applicable, IC50 was calculated using the nonlinear regression method of the Prism 5 software (Graphpad Software Inc., San Diego, CA, USA). […] An MTT assay was conducted as described above to assess the fitness of the cells.

MB cells [1] = test: Cell viability, propidium iodine incorporation, MB cells; format: cell-based, human; conditions: 48 h, 5 µM
Method: Cell viability assays were conducted using a propidium iodine incorporation technique with an ADAM-sHIT automated cell counter (NanoEnTek, Gyeonggi-do, Korea) according to the manufacturer’s protocol.

MB cells [2] = test: Proliferation index assay, MB cells; format: cell-based, human; conditions: after 120 h; axitinib 5 µM, etoposide 1 µM
Method: DAOY, D458, D283, C8-D1A and HDF (30,000 cells per well) and HD-MB03 (50,000 cells per well) were seeded in 24-well plates for proliferation assays.

C8-D1A = test: Cumulative population doubling (CPD), C8-D1A; format: cell-based, murine
Method: (§1) Cumulative population doubling (CPD) was assessed as previously described. Briefly, depending on the cell line, a variable number of cells corresponding to about 30% confluency were seeded in triplicate in 60 mm diameter Petri dishes. […] The cells were harvested when the confluency reached about 90%, counted and plated again at a dilution of 1/20. CPD was calculated as previously described.

HDF = test: Cumulative population doubling (CPD), HDF; format: cell-based, human; conditions: transient treatment for 48 h, 5 µM
Method: as §1

[3] = tested on: MB cells (DAOY, HD-MB03, D283, D458, CHLA-01-MED spheroids); test: Spheroid assay, five MB cell lines; format: cell-based, human; conditions: 5 µM, continuous treatment
Method: Two thousand cells were seeded in ultralow-adhesion 96-well plates (Corning Inc., Corning, NY, USA). […] Pictures were taken with an AMG Evos microscope 40× objective (Thermo Fisher Scientific Inc, Waltham, MA, USA) and the spheroid areas were measured using the ImageJ software (NIH, Bethesda, MD, USA).

20-day-old Wistar rats = test: Juvenile rat toxicity experiment; format: in vivo; conditions: 50 mg/kg daily, oral gavage, four weeks; female and male
Description: The experiments were approved by Comité National Institutionnel d’Ethique pour l’Animal de Laboratoire (France). The rats were bled and the brains were recovered and flash-frozen at the end of the experiment.

[4] = tested on: human brain endothelial cells (BEC, hCMEC/D3); test: MTT assay, brain endothelial cells; format: cell-based; conditions: after three days, 1, 5 and 25 µM tested
[5] = tested on: barrier formed by BEC (hCMEC/D3); test: In vitro BBB permeability assay (FITC-Dextran), BEC; format: cell-based, human; conditions: 3-day treatment, nontoxic doses
Method: This assay was conducted as previously described. […] Permeability was measured by the passage of 40 kDa FITC-Dextran through the inserts. Fluorescence intensity measures were normalized to the DMSO control.

[6] = tested on: HD-MB03 intracranial tumors
Method: HD-MB03-Luc spheroids were stereotaxically implanted into the brains of 9-week-old Rj:NMRI-Foxn1 nude (nu/nu) female mice (Janvier Labs, Le Genest-Saint-Isle, France). Briefly, MB spheroids were generated with 2500 cells grown for 48 h in ultralow-adhesion spheroid 96-well plates (Corning, Corning, NY, USA) and three spheroids per mouse were implanted into the left cerebellar hemisphere (2 mm posterior, 1.5 mm left of the lambda point and 2.5 mm deep) using a Hamilton syringe fitted with a needle (Hamilton, Bonaduz, Switzerland) and following the procedure already described. […] Oral gavage with a vehicle solution was used as the control. Mouse survival was based on the presence of neuropathological symptoms including gait defects and a loss of weight over 10% as endpoints. A minimum of five mice per group was chosen to yield sufficient statistical power (p < 0.05, one-way ANOVA). These experiments were carried out in strict accordance with the recommendations in the Guide for the Care and Use of Laboratory Animals. Our experiments were approved by Direction de l’Action Sanitaire et Sociale of the Principality of Monaco and the ethics committee of Centre Scientifique de Monaco.
Tumor samples were recovered from the animals and embedded in the OCT compound according to the manufacturer’s protocol (Thermo Fisher Scientific Inc., Waltham, MA, USA). After that, 5 µm thin sections were prepared with a cryostat (Leica Microsystems, Wetzlar, Germany). Incubation was carried out with the following antibodies diluted at 1:1000 in TBS supplemented with 1% horse serum and 1% BSA for 20 min at room temperature: anti-Ki67 (cat. number ab16667, Abcam, Cambridge, UK), anti-CD31 (cat. number 550274, BD Biosciences, Frankton Lake, NJ, USA) or anti-αSMA (cat. number A2547, Merck Millipore, Burlington, MA, USA). The preparations were then washed with TBS–0.025% Triton, incubated with anti-rabbit Alexa488 and anti-mouse Alex-555-coupled secondary antibodies (Cell Signaling Technology, Danvers, MA, USA), washed with TBS–0.025% Triton, and the nuclei were counterstained with Hoechst33342 (Thermo Fisher Scientific, Waltham, MA, USA). Fluorescence images of the cells were taken with a DMI400 inverted microscope equipped with a 40× objective (Leica Microsystemes, Nanterre, France) and a Zyla 5.5 camera (Andor Technologies, Belfast, UK) powered by the Micromanager software. At least one cross-section of nonoverlapping images of each tumor was acquired. All the images were then quantified with the CellProfiler 3.0 software.

SMILES: CNC(=O)c1ccccc1Sc1ccc2c(/C=C/c3ccccn3)n[nH]c2c1 [Axitinib, axitinib]
- IC50 (DAOY): 2.3 ± 1.5 µM
- viability of MB cells (MB cells [1]): decreased the viability of most MB cells
- reduction of proliferation of MB cells (MB cells [2]): more than 80%
- long-term proliferation (CPD) of C8-D1A cells (C8-D1A; continuous treatment, 5 µM axitinib, compared to etoposide 1 µM): milder effect
- proliferation (CPD) of C8-D1A normal cells after removal of the drug (C8-D1A; transient treatment for 48 h, 5 µM): able to proliferate again
- proliferation (CPD) of HDF normal cells after removal of the drug (HDF): able to proliferate again
- 3D growth of MB cell spheroids [3]: abolished 3D growth
- general behavior and growth rate of juvenile rats (20-day-old Wistar rats): no effect on the general behavior and growth rate
- doses displaying toxicity in brain endothelial cells [4]: higher than 1 µM
- permeability of the barrier formed by BEC [5]: permeabilized the barrier
- number of CD31-positive and αSMA-positive double-stained structures (vessels covered with pericytes) ([6]; metronomic oral treatment): decreased the number
- intracranial tumor growth (BLI) ([6]; oral, five times a week, axitinib 50 mg/kg, combination 25 + 15 mg/kg): reduced tumor growth
- survival of mice with intracranial tumors ([6]; oral, five times a week, axitinib 50 mg/kg, etoposide 30 mg/kg, combination 25 + 15 mg/kg): increased survival of the animals
